Experiment [1] addresses T1, Aromatase (Homo sapiens, UniProt P11511).
T1 sequence (P11511 whole entry): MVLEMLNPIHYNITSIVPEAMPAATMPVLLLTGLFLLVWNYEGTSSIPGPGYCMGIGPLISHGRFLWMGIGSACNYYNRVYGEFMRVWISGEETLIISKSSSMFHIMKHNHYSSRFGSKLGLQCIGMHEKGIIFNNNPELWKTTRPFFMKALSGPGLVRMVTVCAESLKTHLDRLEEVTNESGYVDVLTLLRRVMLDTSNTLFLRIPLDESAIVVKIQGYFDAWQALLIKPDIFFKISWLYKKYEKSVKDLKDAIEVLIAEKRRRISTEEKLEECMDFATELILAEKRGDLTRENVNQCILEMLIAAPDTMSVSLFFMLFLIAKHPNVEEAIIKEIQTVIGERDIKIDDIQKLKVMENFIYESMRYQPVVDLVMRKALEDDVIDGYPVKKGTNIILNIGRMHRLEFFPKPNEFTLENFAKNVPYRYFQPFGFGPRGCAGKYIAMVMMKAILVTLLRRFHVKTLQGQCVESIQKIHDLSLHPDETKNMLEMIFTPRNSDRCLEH
Description: In vitro inhibition of Cytochrome P450 19A1.

Experiment [2] concerns the target T1, Aromatase. Description: In vitro inactivation of human placental Cytochrome P450 19A1.
In experiment [3] the target is T1, Aromatase. Briefly: Effective dose for inhibition of extragonadal estrogen production in baboons. As to conditions: papio hamadryas; target entry is the homologue from another species. Format: functional.

Regarding `CC12CCC3C(CCC4=C(O)C(=O)CCC43C)C1CCCC2=O` (configuration not stated), in experiment [1], the inhibition constant Ki (in general, a measure of affinity in units of concentration, obtained from inhibition or displacement) amounted to 10.2 nM. Moreover, the kinact (as a rule, the maximal first-order rate at which the target is inactivated) in experiment [2] stood at 0.00041 s⁻¹.
Turning to `C#CC[C@]12CCC(=O)C=C1CC[C@@H]1[C@@H]2CC[C@]2(C)C(=O)CC[C@@H]12` [PLOMESTANE], the 50% effect level in experiment [3] (ED50) was put at a dose of 4 mg/kg. In experiment [1], this compound came in with a Ki of 4 nM. The kinact in experiment [2] was 0.0011 s⁻¹.
As to `C[C@]12C=CC(=O)C=C1CC[C@@H]1[C@@H]2CC[C@]2(C)OC(=O)CC[C@@H]12` [TESTOLACTONE], the Ki in experiment [1] was 35000 nM. Besides, in experiment [2], the kinact worked out at 0.00036 s⁻¹.

The record behind these values is ChEMBL document CHEMBL1124665, “Is there a case for P-450 inhibitors in cancer treatment?” (J Med Chem, 1989).
